For 28 compounds, Ki results are on record in US10501461B2, “Tyrosine amide derivatives as Rho-kinase inhibitors” (CHIESI FARMACEUTICI S.P.A., priority 2017, dated 2019).

Molecules are shown by their SMILES.

In general, Ki refers to the equilibrium dissociation constant of an inhibitor or competing ligand from its target. A low value points to tighter binding.

The target of one test is Rho kinase 1 (ROCK-I) (Homo sapiens, UniProt Q13464). Briefly: In vitro Rho kinase inhibitory activity assay (ADP-Glo), Rho kinase 1. In kind it is biochemical. The conditions noted are these: 10 μM ATP, 25° C., expressed as range of activity. A digest of the protocol:
(§1)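 Each kinase (ROCK1 or ROCK2) sat with compound for 30 min at 25 °C before 10 μM ATP started a 1 h reaction on 2.5 μM myelin basic protein (Tris pH 7.5, MgCl2, BSA, DTT, 1% DMSO). ADP formed was read by ADP-Glo luminescence. Dose-response IC50s were converted to Ki by Cheng-Prusoff.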
For orientation: ADP-Glo first removes unused ATP, then detects ADP through luciferase.

In a further test the target is Rho kinase 2 (ROCK-II) (Homo sapiens, UniProt O75116). Kind of test: In vitro Rho kinase inhibitory activity assay (ADP-Glo), Rho kinase 2. In kind it is biochemical. The conditions noted are these: 10 μM ATP, 25° C., expressed as range of activity. Summed up: as §1
Sequence of Rho kinase 2 (ROCK-II) (O75116 whole entry): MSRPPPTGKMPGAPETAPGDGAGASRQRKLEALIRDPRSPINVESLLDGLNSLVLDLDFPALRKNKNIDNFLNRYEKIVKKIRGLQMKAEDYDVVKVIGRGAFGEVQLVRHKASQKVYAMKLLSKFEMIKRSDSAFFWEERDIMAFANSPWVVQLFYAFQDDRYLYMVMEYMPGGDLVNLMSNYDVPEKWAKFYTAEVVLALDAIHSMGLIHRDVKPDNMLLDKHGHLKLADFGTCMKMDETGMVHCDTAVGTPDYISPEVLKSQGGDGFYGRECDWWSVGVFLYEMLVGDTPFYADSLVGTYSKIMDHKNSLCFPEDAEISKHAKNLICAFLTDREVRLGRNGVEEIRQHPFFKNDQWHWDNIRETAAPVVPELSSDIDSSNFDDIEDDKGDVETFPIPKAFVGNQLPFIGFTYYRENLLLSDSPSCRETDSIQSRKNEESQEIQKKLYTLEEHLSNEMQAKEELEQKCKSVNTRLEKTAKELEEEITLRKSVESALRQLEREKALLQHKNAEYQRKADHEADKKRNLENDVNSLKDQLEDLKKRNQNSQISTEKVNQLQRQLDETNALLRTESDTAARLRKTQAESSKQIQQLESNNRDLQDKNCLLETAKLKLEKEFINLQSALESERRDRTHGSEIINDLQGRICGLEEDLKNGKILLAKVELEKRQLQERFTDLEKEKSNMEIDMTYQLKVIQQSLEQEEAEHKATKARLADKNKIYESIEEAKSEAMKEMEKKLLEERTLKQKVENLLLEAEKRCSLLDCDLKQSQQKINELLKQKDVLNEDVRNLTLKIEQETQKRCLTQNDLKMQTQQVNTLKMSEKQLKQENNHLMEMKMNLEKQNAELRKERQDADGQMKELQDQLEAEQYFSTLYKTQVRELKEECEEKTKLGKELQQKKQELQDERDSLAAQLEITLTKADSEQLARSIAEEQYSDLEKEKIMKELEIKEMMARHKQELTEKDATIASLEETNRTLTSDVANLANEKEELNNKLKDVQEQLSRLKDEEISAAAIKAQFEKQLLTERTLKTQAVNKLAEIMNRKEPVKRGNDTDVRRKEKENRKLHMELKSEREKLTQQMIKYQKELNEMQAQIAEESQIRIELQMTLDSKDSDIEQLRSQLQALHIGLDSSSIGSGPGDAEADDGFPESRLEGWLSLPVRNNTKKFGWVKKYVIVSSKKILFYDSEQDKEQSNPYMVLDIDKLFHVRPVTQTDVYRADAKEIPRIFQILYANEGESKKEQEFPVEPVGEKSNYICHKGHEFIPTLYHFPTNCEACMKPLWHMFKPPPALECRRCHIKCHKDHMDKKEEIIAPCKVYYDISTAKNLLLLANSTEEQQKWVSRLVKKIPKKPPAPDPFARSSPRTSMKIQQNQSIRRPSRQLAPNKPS

Sequence of Rho kinase 1 (ROCK-I) (Q13464 whole entry): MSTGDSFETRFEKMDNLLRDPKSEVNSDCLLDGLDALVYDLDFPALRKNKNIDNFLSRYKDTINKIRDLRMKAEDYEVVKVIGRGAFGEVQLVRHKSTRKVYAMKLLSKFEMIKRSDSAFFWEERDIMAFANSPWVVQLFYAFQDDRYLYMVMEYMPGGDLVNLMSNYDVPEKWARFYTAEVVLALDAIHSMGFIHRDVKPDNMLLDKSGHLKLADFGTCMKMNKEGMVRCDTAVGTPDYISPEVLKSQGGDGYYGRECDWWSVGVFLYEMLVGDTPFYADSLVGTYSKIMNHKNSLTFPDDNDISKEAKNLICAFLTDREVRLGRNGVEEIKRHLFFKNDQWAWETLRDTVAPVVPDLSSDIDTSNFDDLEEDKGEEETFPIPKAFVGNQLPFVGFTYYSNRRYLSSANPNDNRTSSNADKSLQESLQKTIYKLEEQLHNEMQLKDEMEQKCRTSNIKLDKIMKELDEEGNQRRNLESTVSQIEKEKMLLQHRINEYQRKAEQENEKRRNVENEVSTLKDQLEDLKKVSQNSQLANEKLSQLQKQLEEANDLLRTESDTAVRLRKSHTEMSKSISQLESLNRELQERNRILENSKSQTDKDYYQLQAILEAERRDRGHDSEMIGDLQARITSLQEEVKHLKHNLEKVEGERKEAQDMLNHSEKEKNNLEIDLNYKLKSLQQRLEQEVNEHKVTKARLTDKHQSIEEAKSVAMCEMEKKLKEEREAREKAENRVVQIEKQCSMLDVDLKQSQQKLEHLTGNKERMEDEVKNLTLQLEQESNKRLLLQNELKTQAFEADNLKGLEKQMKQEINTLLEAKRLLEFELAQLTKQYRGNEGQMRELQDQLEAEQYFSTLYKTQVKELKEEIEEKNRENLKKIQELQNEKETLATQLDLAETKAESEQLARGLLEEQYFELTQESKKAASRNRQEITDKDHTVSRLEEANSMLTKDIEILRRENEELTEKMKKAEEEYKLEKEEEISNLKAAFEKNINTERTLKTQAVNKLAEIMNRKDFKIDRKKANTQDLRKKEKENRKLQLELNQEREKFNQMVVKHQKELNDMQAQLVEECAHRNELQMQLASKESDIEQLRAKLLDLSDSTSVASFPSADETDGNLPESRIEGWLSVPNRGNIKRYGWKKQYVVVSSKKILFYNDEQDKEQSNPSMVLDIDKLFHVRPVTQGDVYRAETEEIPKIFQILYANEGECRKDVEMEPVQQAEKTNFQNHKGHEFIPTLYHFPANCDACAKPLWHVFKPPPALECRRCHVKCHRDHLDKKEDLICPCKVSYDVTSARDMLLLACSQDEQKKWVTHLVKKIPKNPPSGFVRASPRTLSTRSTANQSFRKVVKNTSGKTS

Take `N[C@H](Cc1ccc(Oc2ccnc3[nH]ccc23)cc1)C(=O)NC1CCCCC1` [Example 112, (R)-3-(4-((1H-pyrrolo[2,3-b]pyridin-4-yl)oxy)phenyl)-2-amino-N-cyclohexylpropanamide]: the figures for the Ki on Rho kinase 1 (ROCK-I) and on Rho kinase 2 (ROCK-II) were greater than 30 nM and 3 to 30 nM, respectively.

Take `Cc1c[nH]c2ncnc(Oc3ccc(C[C@H](N)C(=O)N4CCC(S(=O)(=O)c5ccccc5)CC4)cc3F)c12` [Example 127, (S)-2-amino-3-(3-fluoro-4-((5-methyl-7H-pyrrolo[2,3-d]pyrimidin-4-yl)oxy)phenyl)-1-(4-(phenylsulfonyl)piperidin-1-yl)propan-1-one]: the Ki on Rho kinase 1 (ROCK-I) and on Rho kinase 2 (ROCK-II) was less than 3 nM each time.

For `CN(C)C(=O)C(N)Cc1ccc(Oc2ccnc3[nH]ccc23)cc1` (centres unmarked) [Example 113, 3-(4-((1H-pyrrolo[2,3-b]pyridin-4-yl)oxy)phenyl)-2-amino-N,N-dimethylpropanamide], the Ki at Rho kinase 1 (ROCK-I) is greater than 30 nM; on Rho kinase 2 (ROCK-II) it was 3 to 30 nM.

Turning to `Cc1c[nH]c2nccc(Oc3ccc(CC(N)C(=O)NCc4ccc(CO)cc4)cc3F)c12` (centres unmarked) [Example 62, 2-amino-3-(3-fluoro-4-((3-methyl-1H-pyrrolo[2,3-b]pyridin-4-yl)oxy)phenyl)-N-(4-(hydroxymethyl)benzyl)propanamide], the Ki at Rho kinase 1 (ROCK-I) and at Rho kinase 2 (ROCK-II) was less than 3 nM each time.

In the case of `Cc1noc(C2CCN(C(=O)[C@@H](N)Cc3ccc(Oc4ccnc5[nH]cc(C)c45)c(F)c3)C2)n1` (single isomer, unassigned) [Example 8B], the Ki on Rho kinase 1 (ROCK-I) and at Rho kinase 2 (ROCK-II) was less than 3 nM in each case.

Take `N[C@@H](Cc1ccc(Oc2ccnc3[nH]ccc23)cc1)C(=O)NCc1ccccc1` [Example 97, (S)-3-(4-((1H-pyrrolo[2,3-b]pyridin-4-yl)oxy)phenyl)-2-amino-N-benzylpropanamide]: the Ki on Rho kinase 1 (ROCK-I) and at Rho kinase 2 (ROCK-II) was 3 to 30 nM throughout.

Regarding `Cc1c[nH]c2nccc(Oc3ccc(C[C@H](N)C(=O)N4CCN(C(=O)c5cn(C)cn5)CC4)cc3F)c12` [Example 176, (S)-2-amino-3-(3-fluoro-4-((3-methyl-1H-pyrrolo[2,3-b]pyridin-4-yl)oxy)phenyl)-1-(4-(1-methyl-1H-imidazole-4-carbonyl)piperazin-1-yl)propan-1-one], the Ki is 3 to 30 nM at Rho kinase 1 (ROCK-I) and less than 3 nM on Rho kinase 2 (ROCK-II).

In the case of `Cc1c[nH]c2nccc(Oc3ccc(C[C@@H](C(=O)NC4CCCCC4)N(C)C)cc3)c12` [Example 184, (S)—N-cyclohexyl-2-(dimethylamino)-3-(4-((3-methyl-1H-pyrrolo[2,3-b]pyridin-4-yl)oxy)phenyl)propanamide], the Ki on Rho kinase 1 (ROCK-I) and on Rho kinase 2 (ROCK-II) was less than 3 nM in each case.

`N[C@H](Cc1ccc(Oc2ccnc3[nH]ccc23)cc1)C(=O)NCc1ccccc1` [Example 98, (R)-3-(4-((1H-pyrrolo[2,3-b]pyridin-4-yl)oxy)phenyl)-2-amino-N-benzylpropanamide]: the Ki on Rho kinase 1 (ROCK-I) and on Rho kinase 2 (ROCK-II) was greater than 30 nM in each case.

With `N#Cc1c[nH]c2nccc(Oc3ccc(C[C@H](N)C(=O)N4CCN(Cc5ccccc5)CC4)cc3F)c12` [Example 220, (S)-4-(4-(2-amino-3-(4-benzylpiperazin-1-yl)-3-oxopropyl)-2-fluorophenoxy)-1H-pyrrolo[2,3-b]pyridine-3-carbonitrile], the Ki at Rho kinase 1 (ROCK-I) and at Rho kinase 2 (ROCK-II) was less than 3 nM throughout.

In the case of `CNC(=O)c1ccc(CN2CCN(C(=O)[C@@H](N)Cc3ccc(Oc4ccnc5[nH]cc(C)c45)c(F)c3)CC2)o1` [Example 166, (S)-5-((4-(2-amino-3-(3-fluoro-4-((3-methyl-1H-pyrrolo[2,3-b]pyridin-4-yl)oxy)phenyl)propanoyl)piperazin-1-yl)methyl)-N-methylfuran-2-carboxamide], the Ki at Rho kinase 1 (ROCK-I) and at Rho kinase 2 (ROCK-II) was less than 3 nM each time.

Consider `Cc1cc2c(Oc3ccc(C[C@H](N)C(=O)N4CCN(Cc5ccccc5)CC4)cc3F)ccnc2[nH]1` [Example 86, (S)-2-amino-1-(4-benzylpiperazin-1-yl)-3-(3-fluoro-4-((2-methyl-1H-pyrrolo[2,3-b]pyridin-4-yl)oxy)phenyl)propan-1-one], for which the Ki at Rho kinase 1 (ROCK-I) and at Rho kinase 2 (ROCK-II) was greater than 30 nM in each case.

With `Cc1c[nH]c2nccc(Oc3ccc(C[C@H](N)C(=O)N4CC[C@@H](N(C)C)C4)cc3F)c12` [Example 43, (S)-2-amino-1-((R)-3-(dimethylamino)pyrrolidin-1-yl)-3-(3-fluoro-4-((3-methyl-1H-pyrrolo[2,3-b]pyridin-4-yl)oxy)phenyl)propan-1-one], the Ki at Rho kinase 1 (ROCK-I) and on Rho kinase 2 (ROCK-II) was less than 3 nM each time.

Turning to `N[C@@H](Cc1ccc(Oc2ccnc3[nH]ccc23)c(F)c1)C(=O)Nc1ccccc1` [Example 147, (S)-3-(4-((1H-pyrrolo[2,3-b]pyridin-4-yl)oxy)-3-fluorophenyl)-2-amino-N-phenylpropanamide], the Ki was 3 to 30 nM at Rho kinase 1 (ROCK-I) and less than 3 nM on Rho kinase 2 (ROCK-II).

On to `N[C@@H](Cc1ccc(Oc2ccnc3[nH]cc(Br)c23)c(F)c1)C(=O)NC1CCCCC1` [Example 186, (S)-2-amino-3-(4-((3-bromo-1H-pyrrolo[2,3-b]pyridin-4-yl)oxy)-3-fluorophenyl)-N-cyclohexylpropanamide], for which the Ki at Rho kinase 1 (ROCK-I) and at Rho kinase 2 (ROCK-II) was less than 3 nM throughout.

As to `Cc1c[nH]c2ncnc(Oc3ccc(C[C@H](N)C(=O)N4CCN(Cc5ccccn5)CC4)cc3F)c12` [Example 120, (S)-2-amino-3-(3-fluoro-4-((5-methyl-7H-pyrrolo[2,3-d]pyrimidin-4-yl)oxy)phenyl)-1-(4-(pyridin-2-ylmethyl)piperazin-1-yl)propan-1-one], the Ki was 3 to 30 nM at Rho kinase 1 (ROCK-I) and less than 3 nM at Rho kinase 2 (ROCK-II).

As for `Cc1c[nH]c2nccc(Oc3ccc(C[C@H](N)C(=O)N4CCN(Cc5ccnnc5)CC4)cc3F)c12` [Example 153, (S)-2-amino-3-(3-fluoro-4-((3-methyl-1H-pyrrolo[2,3-b]pyridin-4-yl)oxy)phenyl)-1-(4-(pyridazin-4-ylmethyl)piperazin-1-yl)propan-1-one], the Ki on Rho kinase 1 (ROCK-I) and on Rho kinase 2 (ROCK-II) was less than 3 nM throughout.

In the case of `Cc1c[nH]c2nccc(Oc3ccc(C[C@H](N)C(=O)N4CCN(C(=O)c5nccs5)CC4)cc3F)c12` [Example 177, (S)-2-amino-3-(3-fluoro-4-((3-methyl-1H-pyrrolo[2,3-b]pyridin-4-yl)oxy)phenyl)-1-(4-(thiazole-2-carbonyl)piperazin-1-yl)propan-1-one], the Ki at Rho kinase 1 (ROCK-I) and at Rho kinase 2 (ROCK-II) was less than 3 nM each time.

For the compound `CN(Cc1ccccc1)C(=O)[C@@H](N)Cc1ccc(Oc2ccnc3[nH]ccc23)cc1` [Example 93, (S)-3-(4-((1H-pyrrolo[2,3-b]pyridin-4-yl)oxy)phenyl)-2-amino-N-benzyl-N-methylpropanamide], the Ki at Rho kinase 1 (ROCK-I) and on Rho kinase 2 (ROCK-II) was 3 to 30 nM each time.

In the case of `Cc1c[nH]c2nccc(Oc3ccc(C[C@H](N)C(=O)Nc4ccccc4)cc3)c12` [Example 137, (S)-2-amino-3-(4-((3-methyl-1H-pyrrolo[2,3-b]pyridin-4-yl)oxy)phenyl)-N-phenylpropanamide], the Ki at Rho kinase 1 (ROCK-I) and on Rho kinase 2 (ROCK-II) was less than 3 nM throughout.

Consider `Cc1c[nH]c2ncnc(Oc3ccc(C[C@H](N)C(=O)N4CCC(O)(Cc5ccccc5)CC4)cc3F)c12` [Example 123, (S)-2-amino-1-(4-benzyl-4-hydroxypiperidin-1-yl)-3-(3-fluoro-4-((5-methyl-7H-pyrrolo[2,3-d]pyrimidin-4-yl)oxy)phenyl)propan-1-one], for which the Ki at Rho kinase 1 (ROCK-I) and on Rho kinase 2 (ROCK-II) was less than 3 nM throughout.

For `Cc1c[nH]c2nccc(Oc3ccc(C[C@H](N)C(=O)N4CC[C@H](N(C)C)C4)cc3F)c12` [Example 49, (S)-2-amino-1-((S)-3-(dimethylamino)pyrrolidin-1-yl)-3-(3-fluoro-4-((3-methyl-1H-pyrrolo[2,3-b]pyridin-4-yl)oxy)phenyl)propan-1-one], the Ki on Rho kinase 1 (ROCK-I) and at Rho kinase 2 (ROCK-II) was less than 3 nM in each case.

Consider `N[C@@H](Cc1ccc(Oc2ccnc3[nH]cc(-c4cnoc4)c23)cc1)C(=O)N1CCN(Cc2ccccc2)CC1` [Example 198, (S)-2-amino-1-(4-benzylpiperazin-1-yl)-3-(4-((3-(isoxazol-4-yl)-1H-pyrrolo[2,3-b]pyridin-4-yl)oxy)phenyl)propan-1-one], for which the Ki on Rho kinase 1 (ROCK-I) and on Rho kinase 2 (ROCK-II) was less than 3 nM each time.

Turning to `N[C@H](Cc1cc(F)c(Oc2ccnc3[nH]ccc23)c(F)c1)C(=O)NC1CCCCC1` [Example 229, (R)-3-(4-((1H-pyrrolo[2,3-b]pyridin-4-yl)oxy)-3,5-difluorophenyl)-2-amino-N-cyclohexylpropanamide], the Ki on Rho kinase 1 (ROCK-I) and on Rho kinase 2 (ROCK-II) was 3 to 30 nM each time.

In the case of `Cc1nc(CN2CCN(C(=O)[C@@H](N)Cc3ccc(Oc4ccnc5[nH]cc(C)c45)c(F)c3)CC2)cs1` [Example 157, (S)-2-amino-3-(3-fluoro-4-((3-methyl-1H-pyrrolo[2,3-b]pyridin-4-yl)oxy)phenyl)-1-(4-((2-methylthiazol-4-yl)methyl)piperazin-1-yl)propan-1-one], the Ki at Rho kinase 1 (ROCK-I) and on Rho kinase 2 (ROCK-II) was less than 3 nM throughout.

As for `N[C@@H](Cc1ccc(Oc2ncnc3[nH]ccc23)cc1)C(=O)N1CCN(Cc2ccccc2)CC1` [Example 226, (S)-3-(4-((7H-pyrrolo[2,3-d]pyrimidin-4-yl)oxy)phenyl)-2-amino-1-(4-benzylpiperazin-1-yl)propan-1-one], the Ki at Rho kinase 1 (ROCK-I) and on Rho kinase 2 (ROCK-II) was 3 to 30 nM throughout.

As to `Cc1c[nH]c2nccc(Oc3ccc(CC(N)C(=O)N4CCN(c5ccccn5)CC4)cc3F)c12` (centres unmarked) [Example 80, 2-amino-3-(3-fluoro-4-((3-methyl-1H-pyrrolo[2,3-b]pyridin-4-yl)oxy)phenyl)-1-(4-(pyridin-2-yl)piperazin-1-yl)propan-1-one], the Ki at Rho kinase 1 (ROCK-I) and on Rho kinase 2 (ROCK-II) was less than 3 nM throughout.

For `Cc1c[nH]c2nccc(Oc3ccc(C[C@@H](N)C(=O)NCC4CCCCC4)cc3)c12` [Example 140, (R)-2-amino-N-(cyclohexylmethyl)-3-(4-((3-methyl-1H-pyrrolo[2,3-b]pyridin-4-yl)oxy)phenyl)propanamide], the Ki on Rho kinase 1 (ROCK-I) and on Rho kinase 2 (ROCK-II) was 3 to 30 nM in each case.
